These are literature values, as cited in US11053255B2, “Synthesis of mahanine and related compounds” (Georgetown University, priority 2015, dated 2021).

In one data set the test system is cyclin D1. To be noted: prostate cancer cells.
Data set [1] concerns androgen-independent, PC3 prostate cancer cells. To be noted: in vitro.
The subject of data set [2] is androgen-responsive, LNCaP prostate cancer cells. To be noted: in vitro.
The subject of the next data set is RASSF1A. To be noted: human prostate cancer cells, dose-dependent.

With `CC(C)=CCC[C@]1(C)C=Cc2c(c(C)cc3c2[nH]c2cc(O)ccc23)O1` [mahanine, (R)-3,5-dimethyl-3-(4-methylpent-3-en-1-yl)-3,11-dihydropyrano[3,2-a]carbazol-9-ol], the “cyclin D1 transcriptional activity” value in the data set with cyclin D1 was “represses cyclin D1 transcriptional activity”. Moreover, in data set [1], the growth inhibition result was “inhibits growth” and the induction of apoptosis result was “induces apoptosis”. Also, in data set [2], the growth inhibition entry was “inhibits growth” and the induction of apoptosis result was “induces apoptosis”. In addition, the “expression of RASSF1A” value in the data set on RASSF1A is given as “induces the expression of RASSF1A”.
